Reference: patent publication US20130266663A1, “SOX9 INHIBITORS” (priority 2010, published 2013)

Legend:
SOX9 target genes [1] = test: Q-PCR of SOX9 target gene expression in aged primary astrocyte cultures; type: cell-based, rat
Description: Another approach to modulating the capacity of calmodulin to transport SOX9 into the nucleus is via competitive inhibition of calmodulin binding. To that effect, a novel peptide (SOX-CAL) was generated to specifically block the calmodulin SOX9 binding site. The SOX-CAL peptide sequence, […] (SEQ ID NO.8), corresponds with the calmodulin binding sequence in SOX9. To ensure the peptide's entry into the cell, it was synthesized fused to the protein transduction domain of the HIV-1 Tat protein. […] This analysis was performed in contrast to the control FLAG-TAT peptide.
Antagonists to TRPV4 cation channel were tested to determine their ability to decrease the activity of SOX9 in astrocytes. The effect of TRPV4 antagonists on SOX9 function was evaluated in cultured rat astrocytes transfected with pGL4.1 4×48 Col2a1. The day after transfection, cells were treated for 24 h with 2-APB (100 μM) or ruthenium red (10 μM) before the luciferase assay was performed. The broad-spectrum transient receptor potential (TRP) channel antagonist 2-APB inhibited SOX9 activity by ˜70%, while the vanniloid subfamily-specific TRP antagonist ruthenium red inhibited SOX9 activity by ˜25%. With respect to SOX9 target genes, Q-PCR analysis of aged primary astrocyte cultures was performed to determine the impact of the TRPV4 antagonists on SOX9. Treatment with ruthenium red specifically reduces aggrecan and Col4a expression by 40% and 50%, respectively (FIG. 6B), while 2-APB reduces XT-1, HAPLN1, aggrecan, Col2a, and Col4a by 50%, 70%, 80%, 50%, and 60% respectively (FIG. 6B, C), in rat primary astrocytes after a 48 hour exposure (n=3). […] Based on the role that the TRP channels serve in modulating calcium levels, and therefore calmodulin activity, the effect of the TRP channel blockers on SOX9 activity appears to be indirect.

SOX9 target genes [2] = test: Short-term SOX9 target gene expression (Q-PCR) in injured cord after SCI; type: in vivo; conditions: rat SCI, 2 mg/kg ip 2 hours after injury, sacrificed twelve hours later
Protocol: To validate the impact of the compounds on relevant conditions in rodents, a short-term experiment was performed to see whether chlorpromazine might reduce SOX9 target gene expression in vivo. […] Twelve hours later the rats were sacrificed and RNA was isolated from a 5 mm segment of their injured cords centered on the lesion. […] Specifically, the decrease in the expression of GFAP indicates a lower level of astrocyte activation.
Twelve hours later the rats were sacrificed and RNA was isolated from a 5 mm segment of their injured cords centered on the lesion.

SOX9 target genes [3] = test: Quantitative RT-PCR of SOX9 target genes after SCI, intrathecal miniosmotic pump delivery for 7 days; type: in vivo, rat; conditions: spinal cord-injured rats, 0.35 mg/ml or 3.5 mg/ml
Protocol: To assess, the intrathecal miniosmotic pump as a means of compound delivery, spinal cord-injured rats received either saline, 0.35 mg/ml or 3.5 mg/ml of chlorpromazine for 7 days. At 7 days the levels of SOX9 target gene expression including GFAP, Brevican, XT-1 and Hapln1 were measured by quantitative RT-PCR as previously described.

[4] = tested on: rats subject to spinal cord injury; test: Behavioral testing (BBB scale) after spinal cord injury; type: in vivo; conditions: rat SCI, 0.35 mg/ml and 3.5 mg/ml for 7 days via intrathecal miniosmotic pump; saline controls no improvement
Protocol: As examples of the general utility of chemical compounds for general CNS damage and repair, chlorpromazine was assessed in rodent models of spinal cord injury and stroke (MCAO). […] Briefly, rats were subject to spinal cord injury as described and administered chlropromzaine at 0.35 mg/ml and 3.5 mg/ml for 7 days via the intrathecal miniosmotic pump. At 7 days, 4 rats were assessed for behavioral recovery, prior to being sacrificed for gene expression analyses as described above.
In these studies rats (n=16 per group) will receive the SOX9 inhibitor for 6 weeks at which time half of the animals will be processed for SOX9 target gene expression by Q-PCR (as described above) and half will be processed for immunohistochemistry. […] Locomotor recovery, chronic pain syndromes and autonomic function will be assessed in treated and control mice. Motor function will be evaluated once per week using the Basso, Beattie and Bresnahan (BBB) scale for scoring hind limb function (Basso 1995). The presence of mechanical allodynia (a pain syndrome in which innocuous stimuli are perceived as painful) will be assessed once a week by stimulating the backs of the mice with a modified 1.569 mN Semmes Weinstein monofilament at, and rostral, to the level of the injury. […] Finally autonomic function will be assessed by measuring the degree of autonomic dysreflexia in animals before being sacrificed. […]

MCAO mice = test: Grip testing after MCAO (stroke model); type: in vivo; conditions: mouse MCAO, 5 mg/kg daily i.p. from 24 hours post-injury
Protocol: At 3 days and 7 days post-injury, recovery of the damaged side was assessed by grip testing. […] This provides evidence that chemical compounds that modulate SOX9 activity can improve behavioral function following general CNS damage including that associated with spinal cord injury and stroke.
Stroke injury model: A standard MCAO mouse model will be utilized. Briefly, an 11 mm length of monofilament nylon coated with Poly-L-lysine is passed into the common carotid artery, through the internal carotid artery, and past the middle cerebral artery (MCA), effectively occluding the MCA. The loop of suture is tightened down and the mouse allowed to recover in a warm cage. Effective cerebral blood flow reduction is confirmed by a laser-Doppler flowmetry probe (reductions of 70% or better indicating successful occlusion). After 30 minutes for a moderate injury or 60 minutes for a severe injury, the mouse is re-anesthetized and the nylon suture removed allowing reperfusion.

Q: Which results are given for `CN(C)CCCN1c2ccccc2Sc2ccc(Cl)cc21` [chlorpromazine]?
A: expression of C4ST (SOX9 target genes [1]; 20 uM, 48 hours, vs vehicle): significantly reduced; expression of XT1 (SOX9 target genes [1]; 20 uM, 48 hours, vs vehicle): significantly reduced; expression of XT2 (SOX9 target genes [1]; 20 uM, 48 hours, vs vehicle): significantly reduced; SOX9 target genes expression (SOX9 target genes [1]; longer treatments (1 week)): even more profound reductions; CSPG Aggrecan expression (SOX9 target genes [2]): significant decrease; Type II collagen expression (SOX9 target genes [2]): reduced; Type IV collagen expression (SOX9 target genes [2]): reduced; expression of GFAP (SOX9 target genes [2]): decrease; expression of scar generating factors (SOX9 target genes [2]): decreased expression; SOX9 target gene expression including GFAP, Brevican, XT-1 and Hapln1 (SOX9 target genes [3]): improved anticipated outcome at 3.5 mg/ml of drug; locomoter function score (BBB scale) [4]: non-zero scores; improvement over saline control in grip testing (MCAO mice; 3 days post injury): approximately 15%; improvement over saline control in grip testing (MCAO mice; 7 days post injury): approximately 20%
